Measurements from US20240016777A1, “COMPOUNDS AND METHODS FOR TREATING VIRAL INFECTIONS” (priority 2020, published 2024).

What follows are compounds tested against SARS-CoV-2 M^pro (Severe acute respiratory syndrome coronavirus 2 (2019-nCoV) (SARS-CoV-2), UniProt P0DTD1) (assay: biochemical). Conditions: IC50; compounds evaluated at 0.015-300 μM.

COc1c(O)cc2oc(-c3ccc(O)c(O)c3)cc(=O)c2c1O [6-methoxyluteolin] showed an IC50 of 4 µM.

Same assay, conditions: compound at 17 μM, duplicates, 20 min pre-incubation

For C[C@@H]1O[C@@H](OC[C@H]2O[C@@H](Oc3c(-c4ccc(O)cc4)oc4cc(O)cc(O)c4c3=O)[C@H](O)[C@@H](O)[C@H]2O)[C@H](O)[C@H](O)[C@H]1O [Biorobin], the “Activity (% enzyme activity by fluorescence relative to initial enzyme activity)” value was “+++ (<10% enzyme activity as indicated by fluorescence measurements)”.
For COc1cc2c(c3c1CC[C@@H](c1ccccc1)O3)[C@H]1c3c(cc(O)c(C)c3OC)O[C@](c3ccccc3)(O2)[C@@H]1O [Dracoflavan B1], the “Activity (% enzyme activity by fluorescence relative to initial enzyme activity)” value was “++ (enzyme activity as indicated by fluorescence measurements ≥10% and <80%)”.

Same assay, conditions: compound at 17 μM, duplicates, 20 min pre-incubation; read-out: Activity (% enzyme activity by fluorescence relative to initial enzyme activity)

C=C(C)C(CC=C(C)C)Cc1c(O)cc(O)c2c(=O)c(O)c(-c3ccc(O)cc3)oc12 (stereo not shown) [8-Lavandulylkaempferol] was tested, and the remaining activity at 17 µM was 10 to 80%.

Same assay, conditions: compounds evaluated at 0.015-300 μM; read-out: IC50

First: C[C@@H]1O[C@@H](OC[C@H]2O[C@@H](Oc3c(-c4ccc(O)cc4)oc4cc(O)cc(O)c4c3=O)[C@H](O)[C@@H](O)[C@H]2O)[C@H](O)[C@H](O)[C@H]1O [Biorobin]
Second: COc1cc2c(c3c1CC[C@@H](c1ccccc1)O3)[C@H]1c3c(cc(O)c(C)c3OC)O[C@](c3ccccc3)(O2)[C@@H]1O [Dracoflavan B1]
The IC50 of the first is 2.4-fold lower: 7 µM for the first, 17 µM for the second. The first is the more potent here.

Same assay, conditions: read-out: Activity (% enzyme activity by fluorescence relative to initial enzyme activity), compound at 17 μM, duplicates, 20 min pre-incubation

Compared with CC(C)=CCc1c(O)c(CC=C(C)C)c2c(c1O)C(=O)C[C@@H](c1ccc(O)cc1)O2 [6,8-Diprenylnaringenin], CC(C)=CCc1c(O)c(C)c(O)c2c1O[C@H](c1ccc(O)cc1)CC2=O [6-Methyl-8-prenylnaringenin] is lower in remaining activity at 17 µM: greater than 80% for the first, less than 10% for the second.

CC(C)=CCc1c(O)c(CC=C(C)C)c2occ(-c3ccc(O)c(O)c3)c(=O)c2c1O [6,8-Diprenylorobol] and CC(C)=CCc1c(O)c(CC=C(C)C)c2occ(-c3ccc(O)cc3O)c(=O)c2c1O [8-Prenylluteone] cannot be ordered by remaining activity at 17 µM: greater than 80% for the first, greater than 80% for the second.

CC(C)=CCC/C(C)=C/Cc1c(O)cc2c(c1O)C(=O)C[C@@H](c1ccc(O)cc1)O2 [6-Geranylnaringenin] and CC(C)=CCc1c(O)cc2c(c1O)C(=O)C[C@@H](c1ccc(O)cc1)O2 [6-Prenylnaringenin] cannot be ordered by remaining activity at 17 µM: greater than 80% for the first, greater than 80% for the second.

COc1c(-c2ccc(O)c(O)c2)oc2cc(O)c(CC=C(C)C)c(O)c2c1=O [6-Prenylquercetin-3-methylether] and COc1cc(-c2oc3cc(O)cc(O)c3c(=O)c2OC)cc(CC=C(C)C)c1O [Dodoviscin J] cannot be ordered by remaining activity at 17 µM: greater than 80% for the first, greater than 80% for the second.

First: COc1c(O)cc2oc(-c3ccc(O)c(O)c3)cc(=O)c2c1O [6-methoxyluteolin]
Second: CC(C)=CCc1c(O)cc2oc(-c3ccc(O)cc3O)cc(=O)c2c1O [Artocarpesin]
The remaining activity at 17 µM of the first is lower: 10 to 80% for the first, greater than 80% for the second.

First: CC(C)=CCc1cc(-c2cc(=O)c3c(O)cc(O)c(CC=C(C)C)c3o2)ccc1O [8,3′-Diprenylapigenin]
Second: CC(C)=CCc1cc(-c2cc(=O)c3c(O)cc(O)c(CC=C(C)C)c3o2)cc(O)c1O [Epimedokoreanin B]
The remaining activity at 17 µM of the first is lower: less than 10% for the first, greater than 80% for the second.

CC(C)=CCc1c(O)ccc2c(=O)c(-c3ccc(O)cc3)coc12 [8-Prenyldaidzein] and CC(C)=CCC/C(C)=C/Cc1cc(-c2coc3cc(O)ccc3c2=O)ccc1O [Corylifol A] cannot be ordered by remaining activity at 17 µM: greater than 80% for the first, greater than 80% for the second.

CC(C)=CCc1c(O)cc(O)c2c(=O)c(O)c(-c3ccc(O)cc3)oc12 [8-Prenylkaempferol] and CC(C)=CCc1cc(-c2oc3c(CC=C(C)C)c(O)cc(O)c3c(=O)c2O)ccc1O [Broussoflavonol F] cannot be ordered by remaining activity at 17 µM: greater than 80% for the first, greater than 80% for the second.

Compared with CC(C)=CCc1c(O)cc(O)c2c1O[C@H](c1ccc(O)cc1)CC2=O [8-Prenylnaringenin], CC(C)=CCc1cc2c(cc1O)O[C@H](c1ccc(O)cc1)CC2=O [Bavachin] is higher in remaining activity at 17 µM: 10 to 80% for the first, greater than 80% for the second.

First: CC(C)=CCc1cc([C@@H]2CC(=O)c3ccc(O)c(CC=C(C)C)c3O2)cc(CC=C(C)C)c1O [(−)-Sophoranone]
Second: CC(C)=CCc1cc([C@H]2Oc3cc(O)cc(O)c3C(=O)[C@@H]2O)cc(CC=C(C)C)c1O [Cathayanon H]
The remaining activity at 17 µM of the first is lower: 10 to 80% for the first, greater than 80% for the second.

First: CC(C)=CCc1c(-c2ccc(O)cc2O)oc2cc(O)cc(O)c2c1=O [Albanin A]
Second: CC(C)=CCc1c(-c2ccc(O)cc2O)oc2cc3c(c(O)c2c1=O)C=CC(C)(C)O3 [Cudraflavone B]
The remaining activity at 17 µM of the first is higher: greater than 80% for the first, 10 to 80% for the second.

COc1cc2oc(-c3ccc(O)cc3O)c(CC=C(C)C)c(=O)c2c(O)c1/C=C/C(C)C [Artocarpin] and COc1c(-c2cc(CC=C(C)C)c(O)c(CCC(C)CO)c2)oc2cc(O)cc(O)c2c1=O (stereo not shown) [Dodoviscin H] cannot be ordered by remaining activity at 17 µM: greater than 80% for the first, greater than 80% for the second.

CC(C)=CCc1c(O)c(CC=C(C)C)c2oc3c(c(=O)c2c1O)C(C=C(C)C)Oc1cc(O)c(O)cc1-3 (stereo not shown) [Artoheterophyllin B] and CC(C)=CCc1c2c(c(O)c3c(=O)c4c(oc13)-c1cc(O)c(O)cc1OC4C=C(C)C)C=CC(C)(C)O2 (stereo not shown) [Cycloheterophyllin] cannot be ordered by remaining activity at 17 µM: greater than 80% for the first, greater than 80% for the second.

CC(C)=CCc1c2c(c(O)c3c(=O)c(-c4ccc(O)c(O)c4)coc13)C=CC(C)(C)O2 [Auriculasin] and C=C(C)C(O)Cc1cc(-c2coc3cc(O)c(CC=C(C)C)c(O)c3c2=O)ccc1O (stereo not shown) [Derrisisoflavone B] cannot be ordered by remaining activity at 17 µM: greater than 80% for the first, greater than 80% for the second.

First: CC(C)=CCc1c(O)cc(O)c2c(=O)c(O[C@@H]3O[C@@H](C)[C@H](O)[C@@H](O)[C@H]3O)c(-c3ccc(O)cc3)oc12 [Baohuoside II]
Second: COc1ccc(-c2oc3c(CC=C(C)C)c(O)cc(O)c3c(=O)c2O[C@@H]2O[C@@H](C)[C@H](O)[C@@H](O)[C@H]2O)cc1 [Baohuoside I]
The remaining activity at 17 µM of the first is higher: greater than 80% for the first, 10 to 80% for the second.

COc1ccc(-c2oc3c(CC=C(C)C)c(O)cc(O)c3c(=O)c2O[C@@H]2O[C@@H](C)[C@H](O[C@@H]3O[C@H](CO)[C@@H](O)[C@H](O)[C@H]3O)[C@@H](O)[C@H]2O)cc1 [Baohuoside VII] and COc1ccc(-c2oc3c(CC=C(C)C)c(O[C@@H]4O[C@H](CO)[C@@H](O)[C@H](O)[C@H]4O)cc(O)c3c(=O)c2O[C@@H]2O[C@@H](C)[C@H](O[C@@H]3OC[C@@H](O)[C@H](O)[C@H]3O)[C@@H](O)[C@H]2O)cc1 [Epimedin B1] fall in the same range of remaining activity at 17 µM: 10 to 80% for the first, 10 to 80% for the second.

CC(C)=CCc1c(O[C@@H]2O[C@H](CO)[C@@H](O)[C@H](O)[C@H]2O)cc(O)c2c(=O)c(O[C@@H]3O[C@@H](C)[C@H](O)[C@@H](O)[C@H]3O[C@@H]3O[C@@H](C)[C@H](O)[C@@H](O)[C@H]3O)c(-c3ccc(O)cc3)oc12 [Baohuoside V] and COc1ccc(-c2oc3c(CC=C(C)C)c(O[C@@H]4O[C@H](CO)[C@@H](O)[C@H](O)[C@H]4O)cc(O)c3c(=O)c2O[C@@H]2O[C@@H](C)[C@H](O)[C@@H](O)[C@H]2O[C@@H]2O[C@@H](C)[C@H](O)[C@@H](O)[C@H]2O)cc1 [Epimedin C] fall in the same range of remaining activity at 17 µM: 10 to 80% for the first, 10 to 80% for the second.

COc1cc2c(cc1CC=C(C)C)C(=O)C[C@@H](c1ccc(O)cc1)O2 [Bavachinin] and CC(C)=CCc1c(O)cc2c(c1O)C(=O)C[C@@H](c1ccc(O)cc1O)O2 [Cudraflavanone B] cannot be ordered by remaining activity at 17 µM: greater than 80% for the first, greater than 80% for the second.

COc1c(C2=Cc3ccc(O)cc3OC2)ccc(O)c1CC=C(C)C [Bidwillol A] and COc1c2c(cc(O)c1CC=C(C)C)OCC(c1ccc(O)cc1O)=C2 [Dehydroglyasperin C] cannot be ordered by remaining activity at 17 µM: greater than 80% for the first, greater than 80% for the second.

COc1ccc(-c2oc3c(CC=C(C)C)c(O[C@@H]4O[C@H](CO)[C@@H](O)[C@H](O)[C@H]4O)cc(O)c3c(=O)c2O[C@@H]2O[C@@H](C)[C@H](OC(C)=O)[C@@H](O)[C@H]2O[C@@H]2O[C@H](CO)[C@@H](O)[C@H](OC(C)=O)[C@H]2O)cc1 [Caohuoside E] and COc1ccc(-c2oc3c(CC=C(C)C)c(O[C@@H]4O[C@H](CO)[C@@H](O)[C@H](O)[C@H]4O)cc(O)c3c(=O)c2O[C@@H]2O[C@@H](C)[C@H](OC(C)=O)[C@@H](O)[C@H]2O[C@@H]2O[C@H](COC(C)=O)[C@@H](O)[C@H](OC(C)=O)[C@H]2O)cc1 [Epimedin K] cannot be ordered by remaining activity at 17 µM: greater than 80% for the first, greater than 80% for the second.

CC(C)=CCc1c(O)ccc2c(=O)cc(-c3ccc(O)c(O)c3)oc12 [Corylifol C] and CC(C)=CCc1c(O)cc(O)c2c(=O)cc(-c3cc(O)c4c(c3)C(O)C(C(C)(C)O)O4)oc12 (stereo not shown) [Epimedokoreanin C] cannot be ordered by remaining activity at 17 µM: greater than 80% for the first, greater than 80% for the second.

Compared with CC(C)=CC1Oc2cc(O)ccc2-c2oc3cc(O)cc(O)c3c(=O)c21 (stereo not shown) [Cyclocommunol], CC(C)=CCc1c(O)cc(O)c2c(=O)c3c(oc12)-c1ccc(O)cc1OC3C=C(C)C (stereo not shown) [Cyclomulberrin] is lower in remaining activity at 17 µM: greater than 80% for the first, 10 to 80% for the second.

CC(C)=CC1Oc2cc(O)ccc2-c2oc3c4c(cc(O)c3c(=O)c21)OC(C)(C)C=C4 (stereo not shown) [Cyclomorusin] and COc1c(O)cc2oc(-c3cc(CC=C(C)C)c4c(c3)CC(O)C(C)(C)O4)c(OC)c(=O)c2c1O (stereo not shown) [Dodovisone A] cannot be ordered by remaining activity at 17 µM: greater than 80% for the first, greater than 80% for the second.

CC(C)=CCc1c(O)ccc([C@H]2COc3cc(O)cc(O)c3C2=O)c1O [Dihydrolicoisoflavone] and O=C1c2c(O)cc(O)cc2O[C@H](c2ccc(O)cc2O)[C@H]1O [Dihydromorin] cannot be ordered by remaining activity at 17 µM: greater than 80% for the first, greater than 80% for the second.

C=C(C)C(O)Cc1cc(-c2oc3cc(O)c(OC)c(O)c3c(=O)c2OC)cc(CCC(C)CO)c1O (stereo not shown) [Dodoviscin A] and COc1ccc(-c2oc3c(CC=C(C)C)c(O[C@@H]4O[C@H](CO)[C@@H](O)[C@H](O)[C@H]4O)cc(O)c3c(=O)c2O[C@@H]2O[C@@H](C)[C@H](O)[C@@H](O[C@@H]3O[C@H](CO)[C@@H](O)[C@H](O)[C@H]3O)[C@H]2O)cc1 [Epimedin A1] cannot be ordered by remaining activity at 17 µM: greater than 80% for the first, greater than 80% for the second.

COc1ccc(-c2oc3c(CC=C(C)C)c(O[C@@H]4O[C@H](CO)[C@@H](O)[C@H](O)[C@H]4O)cc(O)c3c(=O)c2O[C@@H]2O[C@@H](C)[C@H](O)[C@@H](O)[C@H]2O[C@@H]2O[C@H](CO)[C@@H](O)[C@H](O)[C@H]2O)cc1 [Epimedin A] and COc1ccc(-c2oc3c(CC=C(C)C)c(O[C@@H]4O[C@H](CO)[C@@H](O)[C@H](O)[C@H]4O)cc(O)c3c(=O)c2O[C@@H]2O[C@@H](C)[C@H](O)[C@@H](O)[C@H]2O[C@@H]2OC[C@@H](O)[C@H](O)[C@H]2O)cc1 [Epimedin B] fall in the same range of remaining activity at 17 µM: 10 to 80% for the first, 10 to 80% for the second.
